This is an account of results in US20200248178A1, “COMBINATION THERAPIES FOR TREATING MUSCULAR DYSTROPHY” (Sarepta Therapeutics, Inc., priority 2017, published 2020).

The test system of data set [1] is NF-κB pathways. The following applies: phase I, adults; cited from earlier work.
In data set [2] the test system is NF-κB. The following applies: cited from earlier work.
In data set [3] the test system is Mdx mice. The following applies: cited from earlier work.
Data set [4] has as its system cNF-κB. The following applies: cited from earlier work.
Data set [5] deals with dystrophin. In words: Study 3 (Study 301): dystrophin in muscle biopsy by Western blot. It counts as in vivo, human. As for the experimental part:
Dystrophin levels in muscle tissue were assessed by Western blot. In the 12 patients with evaluable results, the pre-treatment dystrophin level was 0.16%±0.12% (mean±standard deviation) of the dystrophin level in a healthy subject and 0.44%±0.43% after 48 weeks of treatment with EXONDYS 51® (p<0.05). The median increase after 48 weeks was 0.1%.

The test system of data set [6] is dystrophin. In words: Study 201/202 Week 180 muscle biopsy, Western blot. It counts as in vivo, human. As for the experimental part:
(§1) All 12 patients who participated in Study 1 continued treatment with open-label EXONDYS 51® weekly for an additional 4 years in Study 2. The 4 patients who had been randomized to placebo were re-randomized 1:1 to EXONDYS 51® 30 or 50 mg/kg/week such that there were 6 patients on each dose. Patients who participated in Study 2 were compared to an external control group. The primary clinical efficacy outcome measure was the 6MWT. […] The average dystrophin protein level after 180 weeks of treatment with EXONDYS 51® was 0.93% of the dystrophin level in healthy subjects.
(§2) In order to obtain a comprehensive view of dystrophin expression, biopsies from Study 201/202 were analyzed by three complementary assays. First, Western blot was used to quantitate dystrophin following extraction of protein from muscle tissue. Second, immunohistochemical (IHC) images were evaluated by trained, blinded pathologists to assess the percent dystrophin positive fibers (PDPF), providing information on sarcolemma localization and distribution of dystrophin in muscle fibers. Finally, the IHC images were also assessed by a computer algorithm to measure fiber intensity and to quantify dystrophin at the sarcolemmal membrane.
Background: Immunoblotting shows a protein as a band on a membrane.

The test system of data set [7] is dystrophin. In words: Study 201/202 Week 180 biopsy, IHC percent dystrophin positive fibers (PDPF). It counts as in vivo, human. As for the experimental part:
as §2

The subject of data set [8] is dystrophin. In words: Study 201/202 Week 180 biopsy, IHC fiber intensity. It counts as in vivo, human. As to the method:
as §2

Data set [9] has as its system DMD patients amenable to exon 51 skipping. In words: 6 Minute Walk Test, Study 201/202 vs external control. It counts as in vivo, human. As for the experimental part:
In Study 1, patients were randomized to receive weekly infusions of EXONDYS 51° (30 mg/kg, n=4); EXONDYS 51° (50 mg/kg, n=4), or placebo (n=4) for 24 weeks. The primary endpoint was dystrophin production; a clinical outcome measure, the 6-minute walk test (6MWT), was also assessed. The 6MWT measures the distance that a patient can walk on a flat, hard surface in a period of 6 minutes.
as §1
The pre-specified criteria for identification of patients for the external control groups were based on the inclusion criteria for Study 201/202. These included baseline age, steroid use and specific DMD mutation. Each of these represent key prognostic factors that enable identification of a relatively homogenous population that would be expected to decline on the 6MWT.
A group with DMD mutations amenable to exon 51 skipping therapy (N=13, primary external control group).
The 6MWT assessments in both Study 201/202 and the external registries were conducted in a standardized manner according to international guidelines.

Data set [10] shares this test system. In words: Loss of ambulation, Study 201/202 vs external controls. It counts as in vivo, human. The source says: Ambulatory compromise and irreversible loss of ambulation (LOA) are hallmarks of the progressive muscle degeneration characteristic of DMD. It is a reliable overall indicator of the severity of disease progression and strongly correlates with functional measures such as the 6MWT; it is also less influenced by motivational factors. Furthermore, LOA predicts other major disease milestones such as the need for ventilatory support and survival (Bello 2016). Once confined to a wheelchair, other symptoms tend to follow in rapid succession. Consistent with results of the 6MWT, fewer eteplirsen treated boys lost ambulation (2/12) compared to the external control patients who were amenable to exon 51 skipping therapy (10/13) over the four year time period.
Kaplan-Meier analyses for loss of ambulation were conducted, accounting for missing data. At year three the estimated probability for loss of ambulation was 17% for eteplirsen treated boys compared to 46% of boys from both external control cohorts. At year four, Kaplan-Meier estimates of loss of ambulation was 17% for eteplirsen treated boys compared to 85% for the external control boys amenable to exon 51 skipping. This difference in loss of ambulation over the 4-year period was statistically significant, with a nominal p-value of 0.011 (FIG. 8).

Data set [11] relates to DMD patients. In words: North Star Ambulatory Assessment (NSAA). It counts as in vivo, human. The following applies: end of year three; vs Italian Telethon group. The source says: The NSAA is a clinician-reported outcome instrument specifically designed to measure function in ambulatory patients with DMD. The 17 items are each scored on a 0-2 ordinal scale and include assessments of abilities such as rising from the floor, climbing and descending a step, 10 meter walk/run and lifting the head. Over the first year, both the eteplirsen treated boys and the Italian Telethon group declined at a similar rate. However, following year one, as was observed on 6MWT, the decline in function for the eteplirsen group slowed and by the end of year three there was a 2.4 point greater decline for the untreated boys. This difference is of clinical relevance and may represent loss or impairment of up to 2 activities of daily living.

Data set [12] relates to DMD patients. In words: Ability to rise from supine without external support. It counts as in vivo, human. The following applies: by year three; external control 8%. The source says:
The ability to rise from supine is a critical activity for DMD patients, is one of the early abilities to be lost and may be predictive of loss of ambulation. In an analysis comparing the ability to rise from a supine position (without external support), 92% of eteplirsen treated vs 85% external control patients had the ability to rise without external support at baseline. By year three, 55% of eteplirsen vs 8% of external control patients had the ability to rise without external support.

The test system of data set [13] is DMD patients. In words: Pulmonary function tests (FVC % predicted). It counts as in vivo, human. The following applies: literature >5% annual decline. The source says: In some embodiments, MEP may decline before changes in other pulmonary function tests, including MIP and FVC. In certain embodiments, MEP may be an early indicator of respiratory dysfunction. In certain embodiments, FVC may be used to measure the total volume of air expelled during forced exhalation after maximum inspiration. In patients with DMD, FVC increases concomitantly with physical growth until the early teens. However, as growth slows or is stunted by disease progression, and muscle weakness progresses, the vital capacity enters a descending phase and declines at an average rate of about 8 to 8.5 percent per year after 10 to 12 years of age. In certain embodiments, MIP percent predicted (MIP adjusted for weight), MEP percent predicted (MEP adjusted for age) and FVC percent predicted (FVC adjusted for age and height) are supportive analyses.
Respiratory function in DMD is progressively impaired over time as the dystrophic process affects respiratory muscles, including the diaphragm, leading to significant morbidity and mortality. Eteplirsen treated boys had slower deterioration of respiratory muscle function as measured by FVC % predicted (decrease of ˜2.5% per year) when compared to data from the published literature (>5% annual decline). […]

The subject of data set [14] is immune response. The arrangement: species or system juvenile rats. The following applies: rat, in vivo. An excerpt: Phosphorothioates are known to cause a number of other target organ toxicities in animals, including complement activation and pro-inflammatory effects, coagulopathies, thrombocytopenia, vascular injury, and hepatic Kuppfer cell basophilia (Levin 1998; Monteith 1999; Levin 2001; Henry 2008; Frazier 2014; Engelhardt 2015; Frazier 2015).

The test system of data set [15] is exon 51 of dystrophin pre-mRNA. The following applies: normal human skeletal muscle cells or DMD patient muscle cells; cited from earlier work.
Data set [16] deals with exon 51 of dystrophin pre-mRNA. The following applies: hDMD mouse model; cited from earlier work.
In data set [17] the test system is patient cells. The following applies: cited from earlier work.
Data set [18] deals with mouse model of DMD. The following applies: cited from earlier work.

Several values for one entry are separate records, joined by “and”; a condition that tells them apart may be missing. Identical values can stand only once.

For `CC/C=C\C/C=C\C/C=C\C/C=C\C/C=C\C/C=C\CCC(=O)NCCNC(=O)c1ccccc1O` [CAT-1004, N-(2-[(4Z,7Z,10Z,13Z,16Z,19Z)-docosa-4,7,10,13,16,19-hexaenamido]ethyl)-2-hydroxybenzamide], in data set [1], the safety and tolerability result is recorded as “safe, well tolerated”.
`CC/C=C\C/C=C\C/C=C\C/C=C\C/C=C\CCCC(=O)NCCNC(=O)c1ccccc1O` [CAT-1041]: the phenotype entry in data set [2] (GRMD dog, long-term treatment) was “improves the phenotype”. Also, the diaphragm function result in [2] (dog DMD model) is “improved diaphragm function”. In addition, in data set [3] (mdx mice), the exercise endurance result was “increased exercise endurance”; the inflammation and fibrosis result was “reduced inflammation and fibrosis”; the muscle function entry is recorded as “preserves muscle function”. Also, in [3] (mdx mice, long-term studies), the muscle fibrosis result is “reduces muscle fibrosis” and the skeletal muscle weight entry is listed as “increases skeletal muscle weight”. In addition, the phenotype entry in data set [3] (mdx mouse, long-term treatment) was “improves the phenotype”. The diaphragm function entry in [3] (mouse DMD model) is “improved diaphragm function”. Also, the “cNF-κB activation in vitro” value in [4] is recorded as “inhibit cNF-κB activation in vitro”.
For the molecule Eteplirsen, the “Week 48 % normal dystrophin” value in [5] (30 mg/kg weekly, week 48, individual patients 1-12 and mean, listed as EXONDYS 51, 30 mg/kg) was 0.10 % normal dystrophin and 1.02 % normal dystrophin and 0.30 % normal dystrophin and 0.42 % normal dystrophin and 1.57 % normal dystrophin and 0.12 % normal dystrophin and 0.47 % normal dystrophin and 0.09 % normal dystrophin and 0.21 % normal dystrophin and 0.26 % normal dystrophin and 0.36 % normal dystrophin and 0.37 % normal dystrophin. Besides, the “median increase in dystrophin after 48 weeks” value in data set [5] (12 evaluable patients) is listed as 0.1%. In addition, the “dystrophin level after 48 weeks of treatment (mean±standard deviation)” value in data set [5] (12 evaluable patients, 30 mg/kg weekly, p<0.05 vs pre-treatment) was 0.44%±0.43%. The “Change from Baseline % normal dystrophin” value in data set [5] (week 48 vs pre-treatment baseline, individual patients 1-12 and mean, listed as EXONDYS 51) is 0.06 % normal dystrophin and 0.85 % normal dystrophin and −0.07 % normal dystrophin and 0.25 % normal dystrophin and 1.33 % normal dystrophin and 0.01 % normal dystrophin (2×) and 0.43 % normal dystrophin and 0.07 % normal dystrophin and 0.03 % normal dystrophin and 0.13 % normal dystrophin and 0.31 % normal dystrophin. The “Difference of Means (Treated vs. Untreated)” value in data set [6] (Western Blot, Week 180) is recorded as “+0.85%”; in data set [7], “+16.27%”; in data set [8], “+13.20%”. Moreover, the “Treated (Mean % Dystrophin of Normal)” value was determined as 0.93% in data set [6] (Western Blot, Week 180); 17.39% in [7]; 22.61% in data set [8]. For the same molecule, the “Fold Increase in de novo dystrophin” value in data set [6] (Western Blot, Week 180, relative to untreated controls) is recorded as 11.6 fold. The “average dystrophin protein level after 180 weeks of treatment” value in [6] (Western blot, eleven patients, 30 or 50 mg/kg/week) is reported as 0.93 % of the dystrophin level in healthy subjects. The results for the “Fold Increase” value in data set [7] (treated vs untreated) and in data set [8] (treated vs untreated) were 15.5 fold and 2.4 fold, respectively. Besides, the “6MWT treatment benefit in sensitivity analyses” value in data set [9] (four year results, covariates age, 6MWT, steroid use) was over 100 meter. Also, the “6MWT advantage vs external control” value in data set [9] (year four, p=0.0005) is listed as 162 meter; in [9] (year three, N=12 vs N=13, p=0.005), 148 meter. In addition, the “boys who lost ambulation” value in data set [10] (over a three year time period, external control (any exon skipping) 18/50) is reported as 2/12; in [10] (over the four year time period, external control 10/13) it was 2/12. Besides, in data set [10] (year four, external control 85%, p 0.011), the “Kaplan-Meier estimate of loss of ambulation” value is 17%. Further, the “Kaplan-Meier estimated probability for loss of ambulation” value in [10] (year three, external controls 46%) was 17%. For the same molecule, the “NSAA: greater decline for the untreated boys” value in [11] is listed as 2.4 point. Further, the “patients with ability to rise without external support” value in [12] is listed as 55%. Moreover, the “FVC % predicted decrease” value in data set [13] is listed as about 2.5 % per year. Further, in data set [14], the “effect on the immune response” value is recorded as “no adverse effect on the immune response”. Besides, the “induction of exon 51 skipping in vitro” value in data set [15] is “potent inducer of exon 51 skipping”. In data set [16], the “exon 51 skipping in vivo” value was “confirmed in vivo”.
Consider `O=C1CN(/N=C/c2ccc(-c3ccc([N+](=O)[O-])cc3)o2)C(O)=N1` [dantrolene], for which the antisense-mediated exon skipping entry in data set [17] and in [18] was “enhance antisense-mediated exon skipping” each time.
